Measurements as given in patent publication US20210169080A1, “HETEROCYCLE DERIVATIVES AS PESTICIDES” (Bayer Aktiengesellschaft, priority 2018, published 2021).

How the values were obtained:
[1] = log P by reversed-phase HPLC (EEC Directive 79/831 Annex V.A8), acidic method; type: physicochemical; details: HPLC on reversed-phase C18, acidic range, formic acid in water/acetonitrile; for chromatographic logP: reversed-phase C18 HPLC column
Procedure: The log P values were determined according to EEC Directive 79/831 Annex V.A8 by HPLC (high-performance liquid chromatography) on a reversed-phase column (C18) using the following methods: ^[a] […] Calibration was carried out using a homologous series of straight-chain alkan-2-ones (having 3 to 16 carbon atoms) with known log P values. The values between successive alkanones are determined by linear regression.

Ctenocephalides felis [2] = test: Ctenocephalides felis oral test; type: in vivo; details: 100 ppm in citrated cattle blood, adult cat fleas, after 2 days
Procedure: Solvent: dimethyl sulfoxide To produce a suitable active compound formulation, 10 mg of active compound are mixed with 0.5 ml of dimethyl sulfoxide. Dilution with citrated cattle blood gives the desired concentration. About 20 unfed adult cat fleas (Ctenocephalides felis) are placed into a chamber which is closed at the top and bottom with gauze. A metal cylinder whose bottom end is closed with parafilm is placed onto the chamber. The cylinder contains the blood/active compound formulation, which can be imbibed by the fleas through the parafilm membrane. After 2 days, the kill in % is determined. 100% means that all of the fleas have been killed; 0% means that none of the fleas have been killed.

Myzus persicae [3] = test: Myzus persicae oral test; type: in vivo; details: 4 ppm, oral uptake through parafilm, after 5 days
Procedure: [table] To produce a suitable active compound formulation, 1 part by weight of active compound is dissolved with the stated parts by weight of solvent and made up to the desired concentration with water. 50 μl of the active compound formulation are transferred into microtitre plates and made up to a final volume of 200 μl with 150 μl of IPL41 insect medium (33%+15% sugar). Subsequently, the plates are sealed with parafilm, which a mixed population of green peach aphids (Myzus persicae) within a second microtitre plate is able to puncture and imbibe the solution. After 5 days, the efficacy in % is determined. 100% means that all the aphids have been killed; 0% means that no aphids have been killed.

Phaedon cochleariae = Phaedon cochleariae spray test; type: in vivo; details: 100 g/ha, sprayed Chinese cabbage leaf discs, after 7 days
Procedure: (§1) [table] To produce a suitable active compound formulation, 1 part by weight of active compound is dissolved with the specified parts by weight of solvent and made up to the desired concentration with water containing an emulsifier concentration of 1000 ppm. To produce further test concentrations, the formulation is diluted with emulsifier-containing water. Discs of Chinese cabbage leaves (Brassica pekinensis) are sprayed with an active compound formulation of the desired concentration and, after drying, populated with larvae of the mustard beetle (Phaedon cochleariae). After 7 days, the efficacy in % is determined. 100% means that all the beetle larvae have been killed; 0% means that no beetle larvae have been killed.

Spodoptera frugiperda = Spodoptera frugiperda spray test; type: in vivo; details: 100 g/ha, sprayed maize leaf discs, after 7 days
Procedure: as §1, with “water. Leaf discs” for “water. Discs”, “of maize (Zea mays)” for “of Chinese cabbage leaves (Brassica pekinensis)”, “with caterpillars” for “with larvae”, “the fall armyworm (Spodoptera frugiperda).” for “the mustard beetle (Phaedon cochleariae).”, “the caterpillars” for “the beetle larvae”, “no caterpillar has” for “no beetle larvae have”

Myzus persicae [4] = test: Myzus persicae spray test; type: in vivo; details: 100 g/ha, sprayed Chinese cabbage leaf discs, after 5 days
Procedure: as §1, with “pekinensis) infested by all stages of the green peach aphid (Myzus persicae)” for “pekinensis)”, “concentration.” for “concentration and, after drying, populated with larvae of the mustard beetle (Phaedon cochleariae).”, “5” for “7”, “aphids” for “beetle larvae”

Ctenocephalides felis [5] = test: Ctenocephalides felis in vitro contact test with adult cat fleas; type: in vivo; details: application rate 5 μg/cm^2 (=500 g/ha), after 48 h
Procedure: For the coating of the test tubes, 9 mg of active compound are first dissolved in 1 ml of acetone p.a. and then diluted to the desired concentration with acetone p.a. 250 μl of the solution are distributed homogeneously on the inner walls and the base of a 25 ml glass tube by turning and rocking on an orbital shaker (rocking rotation at 30 rpm for 2 h). With 900 ppm of active compound solution and internal surface area 44.7 cm^2, given homogeneous distribution, an area-based dose of 5 μg/cm^2 is achieved. After the solvent has evaporated off, the tubes are populated with 5-10 adult cat fleas (Ctenocephalides felis), sealed with a perforated plastic lid and incubated in a horizontal position at room temperature and ambient humidity. After 48 h, efficacy is determined. To this end, the tubes are stood upright and the fleas are knocked to the base of the tube. Fleas which remain motionless at the base or move in an uncoordinated manner are considered to be dead or moribund. […] 100% efficacy means that all the fleas were dead or moribund. 0% efficacy means that no fleas were harmed.

Rhipicephalus sanguineus = Rhipicephalus sanguineus in vitro contact test with adult brown dog ticks; type: in vivo; details: application rate 5 μg/cm^2 (=500 g ai/ha), after 48 h
Procedure: For the coating of the test tubes, 9 mg of active compound are first dissolved in 1 ml of acetone p.a. and then diluted to the desired concentration with acetone p.a. 250 μl of the solution are distributed homogeneously on the inner walls and the base of a 25 ml glass tube by turning and rocking on an orbital shaker (rocking rotation at 30 rpm for 2 h). With 900 ppm of active compound solution and internal surface area 44.7 cm^2, given homogeneous distribution, an area-based dose of 5 μg/cm^2 is achieved. After the solvent has evaporated off, the tubes are populated with 5-10 adult dog ticks (Rhipicephalus sanguineus), sealed with a perforated plastic lid and incubated in a horizontal position in the dark at room temperature and ambient humidity. After 48 h, efficacy is determined. To this end, the ticks are knocked to the base of the tube and incubated on a hotplate at 45-50° C. for not more than 5 min. Ticks which remain motionless on the base or move in such an uncoordinated manner that they are unable to deliberately avoid the heat by climbing upwards are considered to be dead or moribund. […] An efficacy of 100% means that all the ticks were dead or moribund. 0% efficacy means that none of the ticks were harmed.

Boophilus microplus = Boophilus microplus injection test; type: in vivo; details: 20 μg/animal injected into abdomen of engorged adult female cattle ticks, assessed after 7 days
Procedure: Solvent: dimethyl sulfoxide To produce a suitable active compound formulation, 10 mg of active compound are mixed with 0.5 ml of solvent and the concentrate is diluted to the desired concentration with solvent. 1 μl of the active compound solution is injected into the abdomen of 5 engorged adult female cattle ticks (Boophilus microplus). The animals are transferred into dishes and kept in a climate-controlled room. The activity is assessed after 7 days by laying of fertile eggs. Eggs which are not visibly fertile are stored in a climate-controlled cabinet until the larvae hatch after about 42 days. An efficacy of 100% means that none of the ticks has laid any fertile eggs; 0% means that all the eggs are fertile.

Diabrotica balteata = Diabrotica balteata spray test; type: in vivo; details: 160 μg/cavity, germinated wheat corns infested with beetle larvae, after 7 days
Procedure: [table] To produce a suitable active compound formulation, 1 part by weight of active compound is dissolved with the specified parts by weight of solvent and made up to the desired concentration with water containing an emulsifier concentration of 1000 ppm. To produce further test concentrations, the formulation is diluted with emulsifier-containing water. Pre-swollen wheat corns (Triticum aestivum) are incubated for one day in a multiwell plate filled with agar and a little water (5 seed corns per cavity). The germinated wheat corns are sprayed with an active compound formulation of the desired concentration. Subsequently, each cavity is infested with 10-20 Diabrotica balteata beetle larvae. After 7 days, the efficacy in % is determined. 100% means that all wheat plants have grown as in the untreated uninfested control; 0% means that no wheat plant has grown.

CCS(=O)(=O)c1c(-c2nc3cc(S(=O)(=O)C(F)(F)F)ccc3o2)nc2cc(C3(C#N)CC3)ccn12 [Example 1-1, 1-[3-(Ethylsulfonyl)-2-{5-[(trifluoromethyl)sulfonyl]-1,3-benzoxazol-2-yl}imidazo-[1,2-a]pyridin-7-yl]cyclopropanecarbonitrile]
chromatographic logP [1]: 3.18 | efficacy (kill in %) (Ctenocephalides felis [2]): 95% | efficacy (aphids killed) (Myzus persicae [3]): 100% | efficacy (beetle larvae killed) (Phaedon cochleariae): 100% | efficacy (caterpillars killed) (Spodoptera frugiperda): 100%

CCS(=O)(=O)c1c(-c2nc3cc([S+]([O-])C(F)(F)F)ccc3o2)nc2cc(C3(C#N)CC3)ccn12 (stereo not shown) [Example 1-2, 1-[3-(ethylsulfonyl)-2-{5-[(trifluoromethyl)sulfinyl]-1,3-benzoxazol-2-yl}imidazo[1,2-a]pyridin-7-yl]cyclo-propanecarbonitrile]
chromatographic logP [1]: 2.67 | efficacy (kill in %) (Ctenocephalides felis [2]): 100% | efficacy (aphids killed) (Myzus persicae [4]): 100% | efficacy (aphids killed) (Myzus persicae [3]): 100% | efficacy (beetle larvae killed) (Phaedon cochleariae): 100% | efficacy (caterpillars killed) (Spodoptera frugiperda): 100%

CCS(=O)(=O)c1c(-c2nc3cc(SC(F)(F)F)ccc3o2)nc2cc(C3(C#N)CC3)ccn12 [Example 1-3, 1-[3-(Ethylsulfonyl)-2-{5-[(trifluoromethyl)sulfanyl]-1,3-benzoxazol-2-yl}imidazo-[1,2-a]pyridin-7-yl]cyclopropanecarbonitrile]
chromatographic logP [1]: 3.63 | efficacy (fleas dead or moribund) (Ctenocephalides felis [5]): 100% | efficacy (ticks dead or moribund) (Rhipicephalus sanguineus): 80% | efficacy (no laying of fertile eggs) (Boophilus microplus): 90% | efficacy (kill in %) (Ctenocephalides felis [2]): 100% | efficacy (beetle larvae killed) (Phaedon cochleariae): 100% | efficacy (caterpillars killed) (Spodoptera frugiperda): 100%

CCS(=O)(=O)c1c(-c2nc3cc(C(F)(F)F)ccc3o2)nc2cc(C3(C#N)CC3)ccn12 [Example 1-4]
chromatographic logP [1]: 3.22 | efficacy (beetle larvae killed) (Phaedon cochleariae): 100% | efficacy (caterpillars killed) (Spodoptera frugiperda): 100%

CCS(=O)(=O)c1c(-c2nc3cc(OC(F)(F)F)ccc3o2)nc2cc(C3(C#N)CC3)ccn12 [Example 1-5, 1-[3-Ethylsulfonyl-2-[5-(trifluoromethoxy)-1,3-benzoxazol-2-yl]imidazo[1,2-a]pyridin-7-yl]cyclopropanecarbonitrile]
chromatographic logP [1]: 3.29 | efficacy (wheat plants grown as in uninfested control) (Diabrotica balteata): 100% | efficacy (caterpillars killed) (Spodoptera frugiperda): 83%

CCS(=O)(=O)c1c(-c2nc3cc(C(F)(F)C(F)(F)F)ccc3o2)nc2cc(C3(C#N)CC3)ccn12 [Example 1-6, 1-[3-Ethylsulfonyl-2-[5-(l, 1,2,2,2-pentafluoroethyl)-1,3-benzoxazol-2-yl]imidazo [1,2-a]pyridin-7-yl]cyclopropanecarbonitrile]
log P (acidic) [1]: 3.68
